In test [1] the test system is Hedgehog pathway activation (GLi-luciferase reporter) in Shh Light II reporter cells. As to the kind of experiment: Hedgehog pathway activation on Shh Light II reporter cells measured by luciferase activity. Type of test: cell-based. The note with it: Mus musculus, Shh Light II. In outline: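 Shh Light II reporter cells carrying a hedgehog-responsive GLi-luciferase reporter were stimulated either with 500 nM SAG, a direct Smoothened agonist, or with conditioned media containing human Sonic Hedgehog (hShh). Test compounds were evaluated for blocking this pathway activation, quantified by luciferase activity. Cell viability was monitored in parallel with the Celltiter-Blue® assay.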

Test [2] concerns Hedgehog pathway activation on 10T1/2/Smo#3 cells (C3H10T1/2 cells transfected with human Smoothened receptor). The test can be described thus: Hedgehog pathway activation on 10T1/2/Smo#3 cells measured by ALP activity. The note with it: Mus musculus, C3H 10T1/2, 10T1/2/Smo#3 cells. Type of test: cell-based. In outline:
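C3H10T1/2 cells stably expressing human Smoothened were activated with hShh-conditioned medium (10-20%) or 500 nM SAG, with test compounds present. Pathway block read as inhibited ALP activity (4-methylumbelliferyl phosphate fluorescence); viability checked by CellTiter-Blue. IC50 values reported.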

Where [3] appears, read: hShh activation, read-out: Shh (IC50, inhibition of Hedgehog pathway activation).
[4] abbreviates: measured by ALP activity, read-out: ALP (IC50, inhibition of Hedgehog pathway activation).
[5] abbreviates: SAG activation (500 nM SAG), read-out: Shh Light II luciferase activity (SAG activation).
[6] abbreviates: hShh activation, read-out: Shh Light II luciferase activity (hShh activation).
Where [7] appears, read: hShh activation, ALP activity, read-out: 10T1/2/Smo#3 ALP activity (hShh Activation).

Like-named read-outs stand apart in the source and are kept apart here.

With `CC(C)(C)C(=O)Nc1cc(-c2cn3nc(N4CC[C@@H](O)C4)ccc3n2)ccc1C(F)(F)F` [Example 341, (R)-N-(5-(6-(3-hydroxypyrrolidin-1-yl)imidazo[1,2-b]pyridazin-2-yl)-2-(trifluoromethyl)phenyl)pivalamide], the IC50 in test [1] (setting [3]) is 123 nM; in test [2] (setting [4]), 109 nM.

In the case of `CN[C@@H]1CCN(c2ccc3nc(-c4ccc(C)c(NC(=O)C(C)(C)C)c4)cn3n2)C1` [Example 391, (R)-N-(2-methyl-5-(6-(3-(methylamino)pyrrolidin-1-yl)imidazo[1,2-b]pyridazin-2-yl)phenyl)pivalamide], the IC50 in test [1] (setting [5]) was 300 to 3000 nM; in test [1] (setting [3]), 57 nM; in test [1] (setting [6]), less than 300 nM; in test [2] (setting [7]), less than 300 nM; in test [2] (setting [4]), 123 nM.

For `C[C@H]1CCCC[C@H]1Oc1ccc2nc(-c3ccc(C(F)(F)F)c(NC(=O)C(C)(C)C)c3)cn2n1` [Example 308, N-(5-(6-((1R,2S)-2-methylcyclohexyloxy)imidazo[1,2-b]pyridazin-2-yl)-2-(trifluoromethyl)phenyl)pivalamide], the IC50 in test [1] (setting [3]) amounted to 1070 nM; in test [2] (setting [4]) it was 1200 nM.

Regarding `Cc1ccc(-c2cn3nc(-c4cc(F)ccc4F)ccc3n2)cc1NC(=O)C(C)(C)C` [Example 261, N-(5-(6-(2,5-difluorophenyl)imidazo[1,2-b]pyridazin-2-yl)-2-methylphenyl)pivalamide], the figures for the IC50 in test [1] (setting [3]) and in test [2] (setting [4]) were 142 nM and 91 nM, respectively.

For the compound `Cc1ccc(-c2cn3nc(-c4ccc(NC(=O)CCCCCCC(=O)NOC5CCCCO5)cc4)ccc3n2)cc1NC(=O)C(C)(C)C` (stereo not drawn) [compound 562], the IC50 was 376 nM in test [1] (setting [3]) and 756 nM in test [2] (setting [4]).

`CC(C)(C)C(=O)Nc1cc(-c2cn3nc(-c4ccc(F)nc4)ccc3n2)ccc1C(F)(F)F` [Example 174, N-(5-(6-(6-fluoropyridin-3-yl)imidazo[1,2-b]pyridazin-2-yl)-2-(trifluoromethyl)phenyl)pivalamide]: the values for the IC50 in test [1] (setting [3]) and in test [2] (setting [4]) were 689 nM and 215 nM, respectively.

With `CCOc1ccc2nc(-c3ccc(CC)c(NC(=O)C(C)(C)C)c3)cn2n1` [Example 283, N-(5-(6-ethoxyimidazo[1,2-b]pyridazin-2-yl)-2-ethylphenyl)pivalamide], the IC50 is 3000 to 30000 nM in test [1] (setting [5]); 2230 nM in test [1] (setting [3]); 300 to 3000 nM in test [1] (setting [6]); 300 to 3000 nM in test [2] (setting [7]); 1820 nM in test [2] (setting [4]).

For the compound `Cc1ccc(-c2cn3nc(N4CC[C@H](O)C4)ccc3n2)cc1NC(=O)C(C)(C)C` [Example 346, (S)-N-(5-(6-(3-hydroxypyrrolidin-1-yl)imidazo[1,2-b]pyridazin-2-yl)-2-methylphenyl)pivalamide], the IC50 in test [1] (setting [5]) is less than 300 nM; in test [1] (setting [3]), 44 nM; in test [1] (setting [6]), less than 300 nM; in test [2] (setting [7]) it was less than 300 nM; in test [2] (setting [4]), 23 nM.

In the case of `Cc1cc(Cl)c(-c2cn3nc(Cl)ccc3n2)cc1NC(=O)C(C)(C)C` [Example 131, N-(4-chloro-5-(6-chloroimidazo[1,2-b]pyridazin-2-yl)-2-methylphenyl)pivalamide], the IC50 in test [1] (setting [3]) worked out at 1450 nM; in test [2] (setting [4]) it was 8280 nM.

`Cc1ccc(-c2cn3nc(-c4cc(C(N)=NO)ccc4C(F)(F)F)ccc3n2)cc1NC(=O)C(C)(C)C` [compound 601]: the IC50 turned out to be 66 nM in test [1] (setting [3]) and 40 nM in test [2] (setting [4]).

On to `CCOC(=O)Nc1cc(-c2cn3nc(-c4cccnc4C(F)(F)F)ccc3n2)ccc1Cl` [Example 673, ethyl 2-chloro-5-(6-(2-(trifluoromethyl)pyridin-3-yl)imidazo[1,2-b]pyridazin-2-yl)phenylcarbamate], for which the results for the IC50 in test [1] (setting [3]) and in test [2] (setting [4]) were 169 nM and 678 nM, respectively.

Consider `Cc1c(-c2cccnc2F)nn2cc(-c3ccc(C(F)(F)F)c(NC(=O)C(C)(C)C)c3)nc2c1C` [Example 199, N-(5-(6-(2-fluoropyridin-3-yl)-7,8-dimethylimidazo[1,2-b]pyridazin-2-yl)-2-(trifluoromethyl)phenyl)pivalamide], for which the IC50 in test [1] (setting [3]) was 337 nM; in test [2] (setting [4]) it was 111 nM.

Consider `CCOC(=O)CCCCCOc1cccc(-c2ccc3nc(-c4ccc(C)c(NC(=O)C(C)(C)C)c4)cn3n2)c1C(F)(F)F` [Example 422, ethyl 6-(3-(2-(4-methyl-3-pivalamidophenyl)imidazo[1,2-b]pyridazin-6-yl)-2-(trifluoromethyl)phenoxy)hexanoate], for which the IC50 in test [1] (setting [3]) was 869 nM; in test [2] (setting [4]) it was 312 nM.

Turning to `Cc1ccc(-c2cn3nc(-c4c(F)cccc4C(F)(F)F)ccc3n2)cc1NC(=O)C(C)(C)C` [Example 397, N-(5-(6-(2-fluoro-6-(trifluoromethyl)phenyl)imidazo[1,2-b]pyridazin-2-yl)-2-methylphenyl)pivalamide], the IC50 in test [1] (setting [5]) was less than 300 nM; in test [1] (setting [3]) it was 73 nM; in test [1] (setting [6]) it was less than 300 nM; in test [2] (setting [7]), less than 300 nM; in test [2] (setting [4]), 315 nM.

For the compound `COc1ccc(-c2ccc3nc(-c4ccc(C(F)(F)F)c(NC(=O)C(C)(C)C)c4)cn3n2)cn1` [Example 170, N-(5-(6-(6-methoxypyridin-3-yl)imidazo[1,2-b]pyridazin-2-yl)-2-(trifluoromethyl)phenyl)pivalamide], the IC50 in test [1] (setting [3]) was found to be 562 nM; in test [2] (setting [4]) it was 681 nM.

On to `CCc1ccc(-c2cn3nc(-c4cccnc4C(F)(F)F)ccc3n2)cc1NC(=O)C1CCCC1` [Example 688, N-(2-ethyl-5-(6-(2-(trifluoromethyl)pyridin-3-yl)imidazo[1,2-b]pyridazin-2-yl)phenyl)cyclopentanecarboxamide], for which the IC50 in test [1] (setting [3]) was found to be 103 nM; in test [2] (setting [4]) it was 578 nM.

`CC1CCCCN1c1ccc2nc(-c3ccc(C(F)(F)F)c(NC(=O)C(C)(C)C)c3)cn2n1` (stereo not drawn) [Example 294, N-(5-(6-(2-methylpiperidin-1-yl)imidazo[1,2-b]pyridazin-2-yl)-2-(trifluoromethyl)phenyl)pivalamide]: the IC50 in test [1] (setting [3]) was found to be 256 nM; in test [2] (setting [4]) it was 254 nM.

With `CC1CCN(c2ccc3nc(-c4ccc(C(F)(F)F)c(NC(=O)C(C)(C)C)c4)cn3n2)CC1` [Example 233, N-(5-(6-(4-methylpiperidin-1-yl)imidazo[1,2-b]pyridazin-2-yl)-2-(trifluoromethyl)phenyl)pivalamide], the values for the IC50 in test [1] (setting [3]) and in test [2] (setting [4]) were 329 nM and 339 nM, respectively.

On to `CC(C)(C)C(=O)Nc1cc(-c2cn3nc(-c4cccnc4C(F)(F)F)ccc3n2)c(F)cc1Cl` [Example 650, N-(2-chloro-4-fluoro-5-(6-(2-(trifluoromethyl)pyridin-3-yl)imidazo[1,2-b]pyridazin-2-yl)phenyl)pivalamide], for which the IC50 was less than 300 nM in test [1] (setting [5]); 100 nM in test [1] (setting [3]); less than 300 nM in test [1] (setting [6]); less than 300 nM in test [2] (setting [7]); 25 nM in test [2] (setting [4]).

As to `COc1ccc2nc(-c3ccc(C)c(NC(=O)c4ccccc4C(F)(F)F)c3)cn2n1` [Example 99, N-(5-(6-methoxyimidazo[1,2-b]pyridazin-2-yl)-2-methylphenyl)-2-(trifluoromethyl)benzamide], the IC50 was greater than 10000 nM in test [1] (setting [3]) and 3690 nM in test [2] (setting [4]).

With `CC(C)(C)C(=O)Nc1cc(-c2cn3nc(-c4cccnc4C(F)(F)F)ccc3n2)ccc1C1CC1` [Example 644, N-(2-cyclopropyl-5-(6-(2-(trifluoromethyl)pyridin-3-yl)imidazo[1,2-b]pyridazin-2-yl)phenyl)pivalamide], the IC50 in test [1] (setting [3]) was 72 nM; in test [2] (setting [4]), 15 nM.
